# Test results: ChEMBL document CHEMBL1150457, “-hydroxyamide derived aminodiols as potent inhibitors of hiv protease” (Bioorg Med Chem Lett, 1995)
# Experiments:
# [1] = test system: Human immunodeficiency virus 1; assay: Concentration required to inhibit HIV-1 virus replication by 50% as determined by XTT; type: functional; conditions: read-out: ED50 (the source's name)
# [2] = molecular target: T1, Human immunodeficiency virus type 1 protease (Human immunodeficiency virus 1, UniProt Q72874); assay: Inhibition constant against HIV protease was determined
# [3] = molecular target: T1, Human immunodeficiency virus type 1 protease; assay: In vitro inhibition of HIV-1 protease.
SMILES,EC50 ([1]; Human immunodeficiency virus 1) [nM],Ki [2] [nM],IC50 [3] [nM],EC50 [1] [nM]
CC(C)(C)OC(=O)N[C@@H](Cc1ccccc1)[C@H](O)CNC[C@@H](O)[C@H](Cc1ccccc1)NC(=O)[C@@](C)(O)C(C)(C)C,60,24,40,
CC(C)(C)OC(=O)N[C@@H](Cc1ccccc1)[C@H](O)CNC[C@@H](O)[C@H](Cc1ccccc1)NC(=O)[C@@H](O)C(C)(C)C,,,1200,
CC(C)(C)CC(=O)N[C@@H](Cc1ccccc1)[C@H](O)CNC[C@@H](O)[C@H](Cc1ccccc1)NC(=O)OC(C)(C)C,1200,,,
CC(C)(C)OC(=O)N[C@@H](Cc1ccccc1)[C@H](O)CNC[C@@H](O)[C@H](Cc1ccccc1)NC(=O)[C@@H](O)c1ccccc1,,,> 10000,
CC(C)(C)OC(=O)N[C@@H](Cc1ccccc1)[C@H](O)CNC[C@@H](O)[C@H](Cc1ccccc1)NC(=O)[C@@](C)(O)c1ccccc1,1350,,260,
CC(C)(C)OC(=O)N[C@@H](Cc1ccccc1)[C@H](O)CNC[C@@H](O)[C@H](Cc1ccccc1)NC(=O)C(C)(C)O,970,,450,
CC(C)(C)OC(=O)N[C@@H](Cc1ccccc1)[C@H](O)CNC[C@@H](O)[C@H](Cc1ccccc1)NC(=O)OC(C)(C)C,80,100,,
CC(C)(C)OC(=O)N[C@@H](Cc1ccccc1)[C@H](O)CNC[C@@H](O)[C@H](Cc1ccccc1)NC(=O)[C@H](O)C(C)(C)C,55,,50,
CC(C)(C)OC(=O)N[C@@H](Cc1ccccc1)[C@H](O)CNC[C@@H](O)[C@H](Cc1ccccc1)NC(=O)[C@](C)(O)C(C)(C)C,1380,,900,
CC(C)(C)OC(=O)N[C@@H](Cc1ccccc1)[C@H](O)CNC[C@@H](O)[C@H](Cc1ccccc1)NC(=O)[C@](C)(O)c1ccccc1,,,6500,
CC(C)(C)OC(=O)N[C@@H](Cc1ccccc1)[C@H](O)CNC[C@@H](O)[C@H](Cc1ccccc1)NC(=O)[C@H](O)c1ccccc1,650,,320,
"CC(C)(C)OC(=O)N[C@@H](Cc1ccccc1)[C@H](O)CNC[C@@H](O)[C@H](Cc1ccccc1)NC(=O)C(O)C(F)(F)F (single isomer, unassigned; isomer A)",60,,40,
"CC(C)(C)OC(=O)N[C@@H](Cc1ccccc1)[C@H](O)CNC[C@@H](O)[C@H](Cc1ccccc1)NC(=O)C(O)(CO)C(C)(C)C (single isomer, unassigned; isomer B)",,,10000,
"CC(C)(C)OC(=O)N[C@@H](Cc1ccccc1)[C@H](O)CNC[C@@H](O)[C@H](Cc1ccccc1)NC(=O)C1(O)CCCC1(C)C (single isomer, unassigned; isomer B)",,,250,375
CC(C)(C)OC(=O)N[C@@H](Cc1ccccc1)[C@H](O)CNC[C@@H](O)[C@H](Cc1ccccc1)NC(=O)C(O)C(F)(F)F (stereo in doubt),,,2200,
CC(C)(C)OC(=O)N[C@@H](Cc1ccccc1)[C@H](O)CNC[C@@H](O)[C@H](Cc1ccccc1)NC(=O)C(O)(CO)C(C)(C)C (stereo in doubt),25,,60,
CC(C)(C)OC(=O)N[C@@H](Cc1ccccc1)[C@H](O)CNC[C@@H](O)[C@H](Cc1ccccc1)NC(=O)C1(O)CCCC1(C)C (stereo in doubt),,,15,30
CC(C)(C)OC(=O)N[C@@H](Cc1ccccc1)[C@H](O)CNC[C@@H](O)[C@H](Cc1ccccc1)NC(=O)C(C)(O)C(C)(C)CO (stereo in doubt; form 1),,,120,110
CC(C)(C)OC(=O)N[C@@H](Cc1ccccc1)[C@H](O)CNC[C@@H](O)[C@H](Cc1ccccc1)NC(=O)C1(O)COCC1(C)C (stereo in doubt; form 1),,,3500,
CC(C)(C)OC(=O)N[C@@H](Cc1ccccc1)[C@H](O)CNC[C@@H](O)[C@H](Cc1ccccc1)NC(=O)C(C)(O)C(C)(C)CO (stereo in doubt; form 2),160,,130,
CC(C)(C)OC(=O)N[C@@H](Cc1ccccc1)[C@H](O)CNC[C@@H](O)[C@H](Cc1ccccc1)NC(=O)C1(O)COCC1(C)C (stereo in doubt; form 2),230,,220,
